# Source: patent US10463644B2, “Uses of sesquiterpene lactone compounds and their derivatives in drugs preparation” (ACCENDATECH, priority 2013, dated 2019)
# Read-outs that look alike come from different tables or passages of the source.
# How the values were obtained:
# [1] = tested on: TNF-α secreted by synoviocyte; assay: Content of TNF-α in culture supernatant of synoviocyte of RA model rats given test compound; type: in vivo; conditions: rat RA model, dose 30 mg/kg.2d; normal control 0.38 ± 0.027, NaCl 0.74 ± 0.098
# Method in brief: (§1)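 Read-out: TNF-α, PGE2 and IL-1β levels in supernatant from cultured synoviocytes. Cells came from RA model rats treated with compound at 30 mg/kg.2d, and from NaCl-treated and normal control rats.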
# [2] = tested on: IL-1β secreted by synoviocyte; assay: Content of IL-1β in culture supernatant of synoviocyte of RA model rats given test compound; type: in vivo; conditions: rat RA model, dose 30 mg/kg.2d; normal control 0.16 ± 0.034, NaCl 0.49 ± 0.136
# Method in brief: as §1
# [3] = tested on: PGE2 secreted by synoviocyte; assay: Content of PGE2 in culture supernatant of synoviocyte of RA model rats given test compound; type: in vivo; conditions: rat RA model, dose 30 mg/kg.2d; normal control 8.34 ± 1.29, NaCl 32.44 ± 10.32
# Method in brief: as §1
# cancer stem cells = assay: Survival rate of cancer stem cells after test compound is added (flow cytometry, Annexin V-FITC/PI, clinical specimen); type: cell-based, patient; conditions: Homo sapiens, 18 h
# From the text: (§2) Take fresh or cryopreserved clinical specimen (acute myelogenous leukemia (AML, marker is CD34^+/CD38^+), chronic myelogenous leukemia (CML, Ph+/CD34+/CXCR4+), chronic lymphocytic leukemia (CLL,CD133+/CD19−/CD38−), skin cancer (CD34+), breast cancer (CD44+/CD24−/ESA+), ovarian cancer (CD44+/CD117+), brain tumor (CD133+) prostate cancer (CD44+/CD24−), head-neck squamous cell carcinoma (CD44+), laryngeal cancer (CD133+), pancreatic cancer (ESA+/CD44+/CD24+), retinoblastoma (ABCG2/ALDH1), Children hepatoblastoma (CD34+/THY1+/c-kit+), liver cancer (CD133+), malignant melanoma (CD133+), colorectal cancer (EpCAM^high/CD44+), colon adenocarcinoma (CD44^high), glioma (ABCG-2/BCRP1), gastrointestinal tumor (ABCG-2/BCRP1), nasopharynx cancer (ABCG2), brain glioma (Dlk-1/Pref-1), gastric cancer (CD45+), lung adenocarcinoma (Sca-1/CD45-/Pecam-/CD34+), lung cancer (CD133+CD34+CD44+)) of patient. Take the acute myelogenous leukemia as the example, conduct density gradient centrifugation with Ficoll and take out the middle mononuclear cells, re-suspend it with serum-free IMDM after centrifuged. Adjust the concentration of cells into 1×10^6/mL and lay 24-well plate with 1 mL in each well, and then treat 18 hours with the compound to select with corresponding concentration. Collect the cells and centrifuge them at 1500 rps for 8 minutes, re-suspend the precipitation with […], mark the antibodies related to leukemia stem cell, avoid light to incubate 30 minutes at room temperature and then centrifuge it at 1500 rps, then wash away the unbound antibody CD34^+CD38^+. Re-suspend it with 100 μl 1× Binding Buffer and add respectively 5 μl Annexin V-FITC and PI, then avoid light to incubate 15 minutes before add 200 μl 1× Binding Buffer, then use flow cytometry to examine the marked apoptosis within one hour.
# cancer cells = assay: Survival rate of cancer cells after test compound is added (flow cytometry, Annexin V-FITC/PI, clinical specimen); type: cell-based, patient; conditions: Homo sapiens, 18 h, read-out: Survival rate (%) All cells (Stem cells and ordinary cells)
# From the text: as §2
# [4] = Head and neck squamous cell carcinomas
smiles,measurement,setting,value
CCOC(=O)[C@@H]1CCCN1C[C@@H]1C(=O)O[C@H]2[C@H]1CCC1(CC1)[C@@H]1CCC3(CC3)[C@H]21 [Compound 29],Content of TNF-α in culture supernatant of synoviocyte (x ± s),[1],0.66 ± 0.046 ng/mL
same,Content of IL-1β in culture supernatant of synoviocyte (x ± s),[2],0.34 ± 0.039 ng/mL
same,Content of PGE2 in culture supernatant of synoviocyte (x ± s),[3],27.64 ± 2.37 ng/mL
same,viability at 10 µM,cancer stem cells; AML,84%
same,viability at 20 µM,cancer stem cells; AML,78%
same,viability at 10 µM,cancer stem cells; Brain glioma,82%
same,viability at 20 µM,cancer stem cells; Brain glioma,76%
same,viability at 10 µM,cancer stem cells; Brain tumor,87%
same,viability at 20 µM,cancer stem cells; Brain tumor,76%
same,viability at 10 µM,cancer stem cells; Breast cancer,79%
same,viability at 20 µM,cancer stem cells; Breast cancer,72%
same,viability at 10 µM,cancer stem cells; CLL,85%
same,viability at 20 µM,cancer stem cells; CLL,79%
same,viability at 10 µM,cancer stem cells; CML,81%
same,viability at 20 µM,cancer stem cells; CML,75%
same,viability at 10 µM,cancer stem cells; Children hepatoblastoma,85%
same,viability at 20 µM,cancer stem cells; Children hepatoblastoma,77%
same,viability at 10 µM,cancer stem cells; Colon adenocarcinoma,81%
same,viability at 20 µM,cancer stem cells; Colon adenocarcinoma,75%
same,viability at 10 µM,cancer stem cells; Colorectal cancer,84%
same,viability at 20 µM,cancer stem cells; Colorectal cancer,78%
same,viability at 10 µM,cancer stem cells; Gastric cancer,79%
same,viability at 20 µM,cancer stem cells; Gastric cancer,72%
same,viability at 10 µM,cancer stem cells; Gastrointestinal tumor,81%
same,viability at 20 µM,cancer stem cells; Gastrointestinal tumor,75%
same,viability at 10 µM,cancer stem cells; Glioma,84%
same,viability at 20 µM,cancer stem cells; Glioma,78%
same,viability at 10 µM,cancer stem cells; [4],82%
same,viability at 20 µM,cancer stem cells; [4],74%
same,viability at 10 µM,cancer stem cells; Laryngeal cancer,85%
same,viability at 20 µM,cancer stem cells; Laryngeal cancer,79%
same,viability at 10 µM,cancer stem cells; Liver cancer,85%
same,viability at 20 µM,cancer stem cells; Liver cancer,77%
same,viability at 10 µM,cancer stem cells; Lung adenocarcinoma,88%
same,viability at 20 µM,cancer stem cells; Lung adenocarcinoma,81%
same,viability at 10 µM,cancer stem cells; Lung cancer,87%
same,viability at 20 µM,cancer stem cells; Lung cancer,76%
same,viability at 10 µM,cancer stem cells; Malignant melanoma,82%
same,viability at 20 µM,cancer stem cells; Malignant melanoma,73%
same,viability at 10 µM,cancer stem cells; Nasopharynx cancer,85%
same,viability at 20 µM,cancer stem cells; Nasopharynx cancer,79%
same,viability at 10 µM,cancer stem cells; Ovarian cancer,88%
same,viability at 20 µM,cancer stem cells; Ovarian cancer,81%
same,viability at 10 µM,cancer stem cells; Pancreatic cancer,82%
same,viability at 20 µM,cancer stem cells; Pancreatic cancer,76%
same,viability at 10 µM,cancer stem cells; Prostate cancer,85%
same,viability at 20 µM,cancer stem cells; Prostate cancer,79%
same,viability at 10 µM,cancer stem cells; Retinoblastoma,85%
same,viability at 20 µM,cancer stem cells; Retinoblastoma,77%
same,viability at 10 µM,cancer stem cells; Skin cancer,82%
same,viability at 20 µM,cancer stem cells; Skin cancer,73%
same,viability at 10 µM,cancer cells; AML,91%
same,viability at 20 µM,cancer cells; AML,88%
same,viability at 10 µM,cancer cells; Brain glioma,89%
same,viability at 20 µM,cancer cells; Brain glioma,86%
same,viability at 10 µM,cancer cells; Brain tumor,94%
same,viability at 20 µM,cancer cells; Brain tumor,87%
same,viability at 10 µM,cancer cells; Breast cancer,88%
same,viability at 20 µM,cancer cells; Breast cancer,81%
same,viability at 10 µM,cancer cells; CLL,88%
same,viability at 20 µM,cancer cells; CLL,85%
same,viability at 10 µM,cancer cells; CML,87%
same,viability at 20 µM,cancer cells; CML,83%
same,viability at 10 µM,cancer cells; Children hepatoblastoma,92%
same,viability at 20 µM,cancer cells; Children hepatoblastoma,89%
same,viability at 10 µM,cancer cells; Colon adenocarcinoma,87%
same,viability at 20 µM,cancer cells; Colon adenocarcinoma,83%
same,viability at 10 µM,cancer cells; Colorectal cancer,91%
same,viability at 20 µM,cancer cells; Colorectal cancer,88%
same,viability at 10 µM,cancer cells; Gastric cancer,88%
same,viability at 20 µM,cancer cells; Gastric cancer,81%
same,viability at 10 µM,cancer cells; Gastrointestinal tumor,87%
same,viability at 20 µM,cancer cells; Gastrointestinal tumor,83%
same,viability at 10 µM,cancer cells; Glioma,91%
same,viability at 20 µM,cancer cells; Glioma,88%
same,viability at 10 µM,cancer cells; [4],88%
same,viability at 20 µM,cancer cells; [4],85%
same,viability at 10 µM,cancer cells; Laryngeal cancer,93%
same,viability at 20 µM,cancer cells; Laryngeal cancer,86%
same,viability at 10 µM,cancer cells; Liver cancer,92%
same,viability at 20 µM,cancer cells; Liver cancer,89%
same,viability at 10 µM,cancer cells; Lung adenocarcinoma,91%
same,viability at 20 µM,cancer cells; Lung adenocarcinoma,89%
same,viability at 10 µM,cancer cells; Lung cancer,94%
same,viability at 20 µM,cancer cells; Lung cancer,87%
same,viability at 10 µM,cancer cells; Malignant melanoma,91%
same,viability at 20 µM,cancer cells; Malignant melanoma,87%
same,viability at 10 µM,cancer cells; Nasopharynx cancer,88%
same,viability at 20 µM,cancer cells; Nasopharynx cancer,85%
same,viability at 10 µM,cancer cells; Ovarian cancer,91%
same,viability at 20 µM,cancer cells; Ovarian cancer,89%
same,viability at 10 µM,cancer cells; Pancreatic cancer,88%
same,viability at 20 µM,cancer cells; Pancreatic cancer,89%
same,viability at 10 µM,cancer cells; Prostate cancer,93%
same,viability at 20 µM,cancer cells; Prostate cancer,86%
same,viability at 10 µM,cancer cells; Retinoblastoma,92%
same,viability at 20 µM,cancer cells; Retinoblastoma,89%
same,viability at 10 µM,cancer cells; Skin cancer,91%
same,viability at 20 µM,cancer cells; Skin cancer,87%
